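These data come from cells grown in 96-well plates and exposed to compound for 48 hours at five concentrations. At the GI50, growth is halved. TGI marks complete inhibition of growth.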
Columns and labels:
Experiment in all cases: DTP human tumour cell line panel, 48 h
[1] = system: OVCAR-4 ovarian
[2] = system: HCT-15 colon
[3] = system: ACHN renal
[4] = system: 786-0 renal
[5] = system: UO-31 renal
[6] = system: CAKI-1 renal
[7] = system: A549 NSCLC
[8] = system: SNB-19 CNS
[9] = system: TK-10 renal
[10] = system: HCC-2998 colon

SMILES | TGI [1] [µM] | TGI [2] [µM] | TGI [3] [µM] | TGI [4] [µM] | TGI [5] [µM] | TGI [6] [µM] | TGI [7] [µM] | TGI [8] [µM] | TGI [9] [µM] | GI50 [10] [µM] | TGI [10] [µM] | GI50 [1] [µM] | GI50 [2] [µM] | GI50 [3] [µM] | GI50 [4] [µM] | GI50 [6] [µM] | GI50 [7] [µM] | GI50 [8] [µM] | GI50 [9] [µM] | GI50 [5] [µM]
CCCCCCCCCCOC(=O)c1cc[n+](C)cc1 | 33 | 29.5 | 33.2 | 31.7 | 30.3 | 30.4 | 31 | 30.4 | 31.8 | – | – | – | – | – | – | – | – | – | – | –
O=C(NC(=O)c1cn(CCN2CCN(C(=O)NCCCCCCNC(=O)N3CCN(CCn4cc(C(=O)NC(=O)OCc5ccccc5)c(=O)[nH]c4=O)CC3)CC2)c(=O)[nH]c1=O)OCc1ccccc1 | > 100 | > 100 | > 100 | > 100 | > 100 | > 100 | > 100 | > 100 | > 100 | – | – | – | – | – | – | – | – | – | – | –
CCN(CC)c1ccc2nc3ccc(N=Nc4ccc(O)cc4)cc3[n+](-c3ccccc3)c2c1 | 2.77 | > 100 | 21.1 | > 100 | – | > 100 | > 100 | 22.9 | > 100 | 4.51 | 16.4 | 1.39 | 6.87 | 4.1 | 26.6 | 10.1 | 4.85 | 11 | 3.15 | –
CCCCN1C(=O)/C(=c2\sc3n(c2=O)C2C(NN=3)N(CC)C(=O)N2CC)c2ccccc21 (configuration not stated) | 4.83 | – | – | 4.18 | – | – | – | 28.1 | 6.26 | 1.38 | 3.81 | 0.909 | – | – | 1.14 | – | – | 1.61 | 1.82 | –
CC1(C)C(=O)C(=Cc2ccco2)C1=O | > 100 | > 100 | > 100 | > 100 | > 100 | > 100 | > 100 | – | > 100 | – | > 100 | – | – | – | – | – | – | – | – | –
Cc1ccccc1N=Nc1c(-c2ccccc2)nn(C(=O)CC(=O)Nc2cccc(Cl)c2)c1-c1ccccc1 | > 31.6 | > 31.6 | > 31.6 | > 31.6 | > 31.6 | > 100 | – | > 100 | – | – | > 31.6 | – | – | – | – | – | – | – | – | –
COC(=O)/C(=C/c1ccc(OC)cc1)C(C(=O)O)=C1CCCCC1 | > 100 | > 100 | > 100 | > 100 | > 100 | > 100 | > 100 | > 100 | > 100 | – | – | – | – | – | – | – | – | – | – | –
C=C(CO)CC(/C=C(\C)CC/C=C(\C)CCl)OC(C)=O (configuration not stated) | > 100 | > 100 | > 100 | > 100 | > 100 | – | > 100 | > 100 | > 100 | – | > 100 | – | – | – | – | – | – | – | – | –
O=c1[nH]c(=O)n(C2CC(O)C(CO)O2)cc1COCC(F)(F)F (configuration not stated) | > 100 | – | > 100 | > 100 | > 100 | > 100 | > 100 | > 100 | > 100 | – | > 100 | – | – | – | – | – | – | – | – | –
O=C([CH-]C(=O)c1ccccc1)c1ccccc1.O=C([CH-]C(=O)c1ccccc1)c1ccccc1.O=C([CH-]C(=O)c1ccccc1)c1ccccc1.[Cl-].[Zr+4] | 88.4 | > 100 | > 100 | 70.3 | – | 63.8 | > 100 | – | 72.4 | – | – | 15.9 | 18.2 | 22 | 18.6 | 12.4 | 33.9 | – | 27.6 | –
CCC[CH2][Sn]([CH2]CCC)([O]C(=O)c1cccc(F)c1F)[O]C(=O)c1cccc(F)c1F | 3.31 | 2.51 | 2.55 | 2.22 | 2.92 | – | 17.5 | 2.8 | 3.11 | 1.63 | 2.98 | 1.86 | 1.25 | 1.28 | 1.05 | – | 5.37 | 1.48 | 1.72 | 1.56
c1ccc(C2CC(c3ccc4ccccc4c3)=Nc3ccccc3S2)cc1 (configuration not stated) | 37.5 | – | 31.2 | 30.2 | 25.1 | – | 38.8 | 36.7 | 37.8 | – | 24.8 | – | – | – | – | – | – | – | – | –
CCN(CC)c1nc(NC2CCCCC2)c2nc(N(CC)CC)nc(NC3CCCCC3)c2n1 | – | > 100 | > 100 | > 100 | – | – | > 100 | > 100 | > 100 | – | > 100 | – | – | – | – | – | – | – | – | –
Cc1cccc(Nc2cc(Cl)nc(SCC(=O)O)n2)c1C | > 100 | > 100 | > 100 | > 100 | – | > 100 | > 100 | > 100 | > 100 | – | – | – | – | – | – | – | – | – | – | –
Cc1ccc(O)c(NC2=C(Cl)C(=O)N(Cc3ccccc3)C2=O)c1 | > 100 | 72.6 | > 100 | 86.1 | 41 | 82.3 | 91.3 | > 100 | > 100 | – | – | 31.7 | 25.3 | 32.4 | 29.6 | 27.5 | 27.1 | 46 | 38.3 | 16
CC12OC(C(=O)C13CCC3)C1C(=O)c3ccc4c(ccc5ccccc54)c3C(=O)C12 (configuration not stated) | – | 22.4 | 21.4 | 8.82 | > 100 | 12.7 | > 100 | 65.7 | 15 | – | – | – | 4.27 | 6.78 | 3.65 | 1.42 | 19.5 | 21.5 | 4.29 | 25.7
C=Cc1c(C)c2cc3[nH]c(cc4nc(cc5nc(cc1[nH]2)C(C)=C5CCC(=O)N(CC)CC)C(CCC(=O)N(CC)CC)=C4C)c(C)c3C=C | > 100 | > 100 | > 100 | > 100 | > 100 | – | > 100 | – | > 100 | – | > 100 | – | – | – | – | – | – | – | – | –
COc1cc(NC(C)CCCNC(C)C)c2ncccc2c1OC (configuration not stated) | 53.3 | > 100 | > 100 | > 100 | > 100 | > 100 | > 100 | > 100 | – | > 100 | > 100 | 4.2 | > 100 | > 100 | > 100 | > 100 | > 100 | > 100 | – | 5.29
S=C(CSc1ccccc1)Nc1cccc2ccccc12 | > 100 | > 100 | > 100 | > 100 | > 100 | > 100 | > 100 | > 100 | > 100 | – | – | – | – | – | – | – | – | – | – | –
O=C(O)Cn1ccc2ccccc21 | > 100 | > 100 | > 100 | > 100 | > 100 | > 100 | > 100 | > 100 | – | > 100 | > 100 | > 100 | > 100 | > 100 | > 100 | > 100 | > 100 | > 100 | – | > 100
O=C1Nc2ccccc2/C1=C/c1cn(CC(O)Cn2cc(/C=C3\C(=O)Nc4ccccc43)c3ccccc32)c2ccccc12 (configuration not stated) | – | 3.71 | 3.91 | 3.21 | 2.94 | 3.39 | 3.21 | 3.82 | 5.46 | 2.28 | 5.21 | – | 1.77 | 1.63 | 1.67 | 1.62 | 1.51 | 1.21 | 2.68 | 1.29
CC(C)(C)c1nc(-c2cccc(NS(=O)(=O)c3c(F)cccc3F)c2F)c(-c2ccnc(N)n2)s1 | > 100 | 81.1 | > 100 | > 100 | > 100 | – | > 100 | > 100 | > 100 | 24.1 | 86.7 | 50.5 | 22.2 | 0.211 | 48.9 | – | 26.1 | 71.5 | 31.8 | 0.46
c1cc[c]([Sn]([O]c2cccc3cccnc23)([O]c2cccc3cccnc23)[c]2ccccc2)cc1 | 0.406 | 0.377 | 0.396 | 4.74 | – | 0.383 | – | – | 2.73 | 2.48 | 9.62 | 0.214 | 0.186 | 0.207 | 0.57 | 0.179 | – | – | 1.31 | –
CCOC(=O)C1=C(C(=O)OCC)C2(c3ccccc3)N(O1)c1ccccc1C2(C)C (configuration not stated) | 71.8 | – | – | > 100 | 67.1 | > 100 | > 100 | > 100 | > 100 | – | > 100 | – | – | – | – | – | – | – | – | –
C/C(O)=C(\N=O)C(=O)NCc1ccccc1 | – | > 100 | > 100 | > 100 | > 100 | > 100 | > 100 | > 100 | > 100 | – | > 100 | – | – | – | – | – | – | – | – | –
CC(=O)O[C@H](C[C@H](C(C)C)N(C)C(=O)[C@@H](NC(=O)[C@H]1CCCCN1C)C(C)C)c1cccc(C(=O)N[C@@H](Cc2ccccc2)C[C@H](C)C(=O)O)n1 | > 25 | > 25 | > 25 | > 25 | > 25 | > 25 | > 25 | > 25 | – | 0.0544 | > 25 | 0.107 | 0.219 | 0.0955 | 0.0463 | 0.0686 | 0.0666 | 0.0343 | – | 0.33

From PubChem BioAssay (NCI)
